# Article PMC9063844, “Synergic action of an inserted carbohydrate-binding module in a glycoside hydrolase family 5 endoglucanase” (Acta Crystallographica. Section D, Structural Biology, 2022)
# Experiments:
# [1] = target: T1, ΔCBM (Meiothermus taiwanensis, UniProt A0A399DY85, DEL251-380); test: X-ray crystal structure (crystal soaked with […] cellobiose); assay type: binding; conditions: 1.53 Å; between Trp43 and Trp224
# T1 construct: gene celH; CBM-deleted MtGlu5, residues 1-235 joined to 366-455 (catalytic domain only); pET-21, C-terminal His6; E. coli BL21(DE3)
# [2] = target: T1, ΔCBM; test: turnover in the soaked crystal (glucose found instead of cellopentaose); assay type: binding; conditions: crystal soak, 10 mM cellopentaose
# [3] = target: T2, MtGlu5 (Meiothermus taiwanensis, UniProt A0A399DY85); test: hydrolysis, specific activity (reducing sugar, DNS); assay type: biochemical; conditions: optimum pH 5.0, 60 °C
# T2 construct: gene celH; residues 15-470, signal peptide removed, catalytic domain with inserted CBM29-like domain (236-365); pET-21, C-terminal His6; E. coli BL21(DE3)
# [4] = target: T2, MtGlu5; test: X-ray crystal structure (co-crystallised with CMC); assay type: binding; conditions: 2.99 Å; glucose from CMC hydrolysis, stacked between Trp43 and Trp224 in the catalytic pocket (-2 or -3 subsite)
# [5] = target: T1, ΔCBM; test: X-ray crystal structure (crystal soaked with cellopentaose); assay type: binding; conditions: 1.53 Å; between Trp43 and Trp224; glucose from cellopentaose cleavage
# T1 sequence (A0A399DY85 entry or part of it DEL251-380): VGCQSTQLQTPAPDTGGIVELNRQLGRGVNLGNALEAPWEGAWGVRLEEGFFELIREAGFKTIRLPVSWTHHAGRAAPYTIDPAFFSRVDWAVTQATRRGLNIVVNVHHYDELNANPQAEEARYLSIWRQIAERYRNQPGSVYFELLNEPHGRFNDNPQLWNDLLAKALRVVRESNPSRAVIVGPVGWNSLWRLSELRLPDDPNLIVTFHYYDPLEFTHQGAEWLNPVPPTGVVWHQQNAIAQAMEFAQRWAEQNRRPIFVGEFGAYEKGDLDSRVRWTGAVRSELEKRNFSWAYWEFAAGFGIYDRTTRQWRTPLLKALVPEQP
# T2 sequence (A0A399DY85 entry or part of it): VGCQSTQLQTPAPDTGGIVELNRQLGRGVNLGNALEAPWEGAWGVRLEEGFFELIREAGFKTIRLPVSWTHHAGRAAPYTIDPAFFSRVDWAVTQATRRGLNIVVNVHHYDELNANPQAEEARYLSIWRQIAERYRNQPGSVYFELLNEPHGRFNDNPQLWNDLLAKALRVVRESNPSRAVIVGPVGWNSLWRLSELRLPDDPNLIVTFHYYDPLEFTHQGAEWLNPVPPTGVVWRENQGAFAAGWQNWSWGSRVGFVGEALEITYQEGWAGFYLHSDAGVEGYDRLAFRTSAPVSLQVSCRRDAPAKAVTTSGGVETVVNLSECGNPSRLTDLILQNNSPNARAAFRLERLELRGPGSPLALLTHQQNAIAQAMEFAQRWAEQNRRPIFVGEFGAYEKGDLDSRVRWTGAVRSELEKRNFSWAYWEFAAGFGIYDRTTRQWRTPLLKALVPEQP
smiles,measurement,setting,value
OC[C@H]1O[C@@H](O[C@H]2[C@H](O)[C@@H](O)C(O)O[C@@H]2CO)[C@H](O)[C@@H](O)[C@@H]1O (some centres unmarked) [cellobiose],X-ray crystal structure (crystal soaked with 10 mM cellobiose),[1],ΔCBM crystals in complex with glucose and cellobiose were obtained by soaking with cellopentaose and cellobiose
OC[C@H]1O[C@@H](O[C@H]2[C@H](O)[C@@H](O)[C@H](O[C@H]3[C@H](O)[C@@H](O)[C@H](O[C@H]4[C@H](O)[C@@H](O)[C@H](O[C@H]5[C@H](O)[C@@H](O)C(O)O[C@@H]5CO)O[C@@H]4CO)O[C@@H]3CO)O[C@@H]2CO)[C@H](O)[C@@H](O)[C@@H]1O (some centres unmarked) [cellopentaose],turnover in the soaked crystal (glucose found instead of cellopentaose),[2],presence of bound glucose rather than cellopentaose in the former crystal
same,"hydrolysis, specific activity (reducing sugar, DNS)",[3],"specific activities of MtGlu5 towards CMC, β-glucan (barley) and cellopentaose"
OC[C@H]1OC(O)[C@H](O)[C@@H](O)[C@@H]1O (some centres unmarked) [glucose],X-ray crystal structure (co-crystallised with CMC),[4],Bound glucose was observed in the MtGlu5 crystal
same,X-ray crystal structure (crystal soaked with cellopentaose),[5],ΔCBM crystals in complex with glucose and cellobiose were obtained by soaking with cellopentaose and cellobiose
